Where “and” joins values, the source holds several entries; their conditions need not be identical. Equal values may be shown once.
Columns and labels:
[1] = cited from earlier work
OAT2h splice variant = OAT2h splice variant (Homo sapiens, UniProt Q9Y694); details: 24 h incubation, 100 μmol/l in uptake buffer
Description: (§1) A substrate search by LC-MS difference shading was performed with 293 cells stably transfected to express OAT2 from rat. […] To verify that trigonelline is directly transported by OAT2 and not just increased indirectly, initial rates of uptake (1 min, 37° C.) of trigonelline (10 μmol/l) were determined by LC-MS/MS.
After centrifugation (1 min, 16000×g, 20° C.) of thawed lysates, 100 μl of the supernatant was mixed with either 10 μl unlabeled MPP+ iodide (0.5 ng/μl) or biphenyl-4-carboxylic acid (Sigma-Aldrich) as internal standard. Of this mixture, […] were analyzed by LCMS/MS on a triple quadrupole mass spectrometer (4000 Q TRAP, Applied Biosystems, Darmstadt, Germany). […] For quantification (scan time 150 ms), the optimal collision energy for argon-induced fragmentation in the second quadrupole was determined for each analyte. […] Sample analyte content was calculated from the analyte response ratio and the slope of the calibration curve, obtained by linear regression. With LC-MS quantitation, solute content of cell lysates was determined for 4 conditions (paired dishes, incubation time 1 min): a) transporter expression on, uptake buffer; b) expression off, uptake buffer; c) expression on, substrate in uptake buffer; d) expression off, substrate in uptake buffer. Acute uptake mediated by heterologously expressed carrier was then calculated as (c−a)−(d−b). […]

[2] = target: OAT2h splice variant E131_W132insSQ (Homo sapiens, UniProt Q9Y694); details: initial rate 1 min, 37° C., 10 μmol/l, LC-MS/MS, uptake buffer in the expression period
Description: as §1
For measurement of solute uptake, cells were grown in surface culture on 60 mm polystyrol dishes (Nunclon 150288, Nunc, Roskilde, Denmark) precoated with 0.1 g/l poly-L-ornithine in 0.15 M boric acid-NaOH, pH 8.4. Cells were used for uptake experiments at a confluence of at least 70%. Uptake was measured at 37° C. […] Radioactivity was determined, after cell lysis with 0.1% v/v Triton X-100 in 5 mmol/l TRIS-HCl pH 7.4, by liquid scintillation counting. […]
After centrifugation (1 min, 16000×g, 20° C.) of thawed lysates, 100 μl of the supernatant was mixed with either 10 μl unlabeled MPP+ iodide (0.5 ng/μl) or biphenyl-4-carboxylic acid (Sigma-Aldrich) as internal standard. Of this mixture, […] were analyzed by LCMS/MS on a triple quadrupole mass spectrometer (4000 Q TRAP, Applied Biosystems, Darmstadt, Germany). […] For quantification (scan time 150 ms), the optimal collision energy for argon-induced fragmentation in the second quadrupole was determined for each analyte. […] Acute uptake mediated by heterologously expressed carrier was then calculated as (c−a)−(d−b). […]

OAT2r = target: T1, OAT2r (Rattus norvegicus, UniProt Q5RLM2); assay: 24 h accumulation in lysates of OAT2r-expressing versus control cells (LC-MS/MS); assay type: cell-based; details: 24 h incubation, compound at 100 μmol/l
T1 construct: expressed in transfected cells
T1 sequence (Q5RLM2 1-535): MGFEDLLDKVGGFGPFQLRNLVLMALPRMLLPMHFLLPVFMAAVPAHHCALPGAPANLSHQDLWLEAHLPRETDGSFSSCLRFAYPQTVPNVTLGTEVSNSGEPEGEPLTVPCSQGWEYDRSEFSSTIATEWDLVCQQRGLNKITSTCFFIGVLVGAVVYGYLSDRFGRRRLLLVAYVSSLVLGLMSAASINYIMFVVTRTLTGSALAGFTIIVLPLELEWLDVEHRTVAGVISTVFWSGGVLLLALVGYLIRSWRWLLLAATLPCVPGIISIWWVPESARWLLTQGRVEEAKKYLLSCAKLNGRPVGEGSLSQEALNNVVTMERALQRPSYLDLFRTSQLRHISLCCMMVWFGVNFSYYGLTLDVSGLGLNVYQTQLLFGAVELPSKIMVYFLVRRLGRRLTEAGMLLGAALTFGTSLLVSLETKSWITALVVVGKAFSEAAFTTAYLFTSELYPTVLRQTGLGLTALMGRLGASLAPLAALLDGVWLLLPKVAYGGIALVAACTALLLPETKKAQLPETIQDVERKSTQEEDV
Description: as §1
With trigonelline as substrate lead, compounds wholly or partly related in structure were analyzed for transport by OAT2 from rat.
After centrifugation (1 min, 16000×g, 20° C.) of thawed lysates, 100 μl of the supernatant was mixed with either 10 μl unlabeled MPP+ iodide (0.5 ng/μl) or biphenyl-4-carboxylic acid (Sigma-Aldrich) as internal standard. Of this mixture, […] were analyzed by LCMS/MS on a triple quadrupole mass spectrometer (4000 Q TRAP, Applied Biosystems, Darmstadt, Germany). […] Atmospheric pressure ionization with positive or negative electrospray was used. For quantification (scan time 150 ms), the optimal collision energy for argon-induced fragmentation in the second quadrupole was determined for each analyte. […] Linear calibration curves were constructed from at least six standards which were prepared using control cell lysates as solvent. Sample analyte content was calculated from the analyte response ratio and the slope of the calibration curve, obtained by linear regression. With LC-MS quantitation, solute content of cell lysates was determined for 4 conditions ([…]): a) transporter expression on, uptake buffer; b) expression off, uptake buffer; c) expression on, substrate in uptake buffer; d) expression off, substrate in uptake buffer. Acute uptake mediated by heterologously expressed carrier was then calculated as (c−a)−(d−b). This approach takes into account endogenous solute content and non-specific uptake. Protein was measured by the BCA assay (Pierce) with bovine serum albumin as standard. The protein content of MS samples was estimated from 3 matched cell dishes.

Row | Structure (SMILES) | pKa [1] | increase in cell lysates versus control cells (factor f) (OAT2h splice variant) | carrier-mediated clearance [2] [μl min-1 mg protein-1] | increase in OAT2r cell lysates versus control cells (factor f) (OAT2r)
1 | O=C(O)c1cc(=O)[nH]c(=O)[nH]1 [orotic acid] | ≈ 2.4 |  |  | 
2 | C[n+]1cccc(C(=O)[O-])c1 [trigonelline] |  | 3.9 | 2.5±0.9 | 8.1 and 4.7

— patent US20140090094A1, “MODULATORS OF SLC22A7” (BAYER INTELLECTUAL PROPERTY GmbH, priority 2011, published 2014)
